Test results published in article PMC6108835, “Target-Based Discovery of an Inhibitor of the Regulatory Phosphatase PPP1R15B” (Cell, 2018).

Columns and labels:
PP1c = PP1c (Homo sapiens, UniProt P36873); assay: PP1c catalytic activity assay (DiFMUP, EnzChek); settings: his-PP1c 30 nM
Procedure: Residual activity of PP1c was measured using the EnzChek Phosphatase Assay Kit (ThermoFisher Scientific) according to the supplier’s instructions, with minor modifications.

R15B-PP1c = target: T1, R15B-PP1c (Homo sapiens, UniProt Q5SWA1); assay: Selective holophosphatase activity assay, eIF2α dephosphorylation by R15B-PP1c; type: biochemical; settings: Raphin1 100 μM, 30°C, 16 hr
T1 construct: cDNAs encoding amino acids 325-636 of R15A and 340-698 of R15B were cloned into pMAL-c5x; made in house; host or cells: E. coli (R15 and eIF2α: BL21-Gold (DE3) pLysS; PP1: BL21/pGro7)
T1 sequence (Q5SWA1 340-698): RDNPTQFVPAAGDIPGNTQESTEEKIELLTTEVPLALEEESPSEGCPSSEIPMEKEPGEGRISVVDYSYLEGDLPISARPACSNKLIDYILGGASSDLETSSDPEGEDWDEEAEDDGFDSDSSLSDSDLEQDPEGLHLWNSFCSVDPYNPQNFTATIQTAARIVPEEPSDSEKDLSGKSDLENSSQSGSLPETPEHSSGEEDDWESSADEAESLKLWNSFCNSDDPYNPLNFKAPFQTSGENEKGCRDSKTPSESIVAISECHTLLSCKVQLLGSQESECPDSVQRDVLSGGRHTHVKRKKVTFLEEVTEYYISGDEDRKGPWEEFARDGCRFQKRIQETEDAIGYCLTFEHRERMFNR
T1 sequence (P62136 7-330 partner limits assumed): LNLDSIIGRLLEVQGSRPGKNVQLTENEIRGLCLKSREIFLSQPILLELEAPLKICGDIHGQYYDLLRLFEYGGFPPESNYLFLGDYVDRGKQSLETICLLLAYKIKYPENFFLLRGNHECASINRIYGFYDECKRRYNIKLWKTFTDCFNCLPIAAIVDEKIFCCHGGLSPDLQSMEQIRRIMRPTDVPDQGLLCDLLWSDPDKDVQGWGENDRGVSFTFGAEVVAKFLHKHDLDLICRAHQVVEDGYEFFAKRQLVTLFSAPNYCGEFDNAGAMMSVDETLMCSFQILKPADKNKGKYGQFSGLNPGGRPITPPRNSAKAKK
Procedure: The assay was performed as previously described ([Carrara et al., 2017]). Dephosphorylation experiments were carried out in dephosphorylation buffer (50 mM Tris pH 7.4, 1.5 mM EGTA pH 8.0, 2 mM MnCl2), and all proteins were diluted to the appropriate concentration in dephosphorylation buffer. PP1c was diluted to 10 nM, R15s were diluted to 50 nM and P-eIF2α was diluted to 1 μM. Proteins were mixed as appropriate, and Raphin1 at 100 μM or DMSO vehicle control were added. Reactions were incubated at 30°C for 16 hr. 4% SDS-Laemmli sample buffer was added to stop the reactions. Samples were loaded on 4%–12% NuPAGE Bis-Tris gels (ThermoFisher Scientific), diluted 1-fold, and analyzed by immunoblotting using anti-Phospho-eIF2α (Ser51) (Cell Signaling (#9721); […]) and total anti-eIF2α (AbCam (#ab26197); 1:1,000) antibodies.

[1] = Body weight gain of wild-type mice under chronic treatment; type: in vivo, mouse; settings: various doses once a day (2 mg/kg for 10 weeks; 15 days at indicated doses)
Procedure: The acetate salts of Raphin1 or GBZ were dissolved in water and sonicated for 10 min. The solution was aliquoted and kept at −20°C until use. Once thawed a tube was kept at 4°C and used within 24 hr. The compounds were administered by oral gavage.
Raphin1 was administered at 2 mg/kg (unless otherwise specified). Mice received a single dose or were treated chronically – one time per day. Control mice were treated with vehicle (water) only.
Mice were weighted on a dedicated scale (A&D, FX3000iWP). 4 weeks old treatment and test naive C57BL/6J males and females (Figure 6B) and 2 months old treatment and test naive C3H/B6 males (Figure S6A) were used.

[2] = Glucose tolerance test in wild-type mice; type: in vivo, mouse; settings: 2 mg/kg daily for 8 weeks
Procedure: Treatment- and test-naive 4 weeks old C3H/B6 males were used. Raphin1 was administered to mice daily for 8 weeks before the test. After the overnight 14 hr starvation mice were injected intraperitoneally with D-glucose (Sigma-Aldrich) at 2 g glucose/kg body weight. Right before and at the indicated time points after the injection blood samples were collected from the tail vein and the blood glucose concentration was determined using The Accu-Chek Aviva Blood Glucose Meter (Roche).

Chain of PP1c (P36873 1-322): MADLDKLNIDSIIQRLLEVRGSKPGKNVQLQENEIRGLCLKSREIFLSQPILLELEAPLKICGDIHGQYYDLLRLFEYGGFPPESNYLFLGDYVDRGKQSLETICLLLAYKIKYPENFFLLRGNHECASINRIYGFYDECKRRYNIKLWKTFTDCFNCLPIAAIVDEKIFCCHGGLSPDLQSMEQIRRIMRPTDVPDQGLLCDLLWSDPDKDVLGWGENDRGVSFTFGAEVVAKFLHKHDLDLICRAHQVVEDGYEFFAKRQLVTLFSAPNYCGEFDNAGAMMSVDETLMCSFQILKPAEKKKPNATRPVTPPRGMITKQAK

[H]/N=C(\N)NN=Cc1cccc(Cl)c1Cl [Raphin1, (E)-2-(2,3-dichlorobenzylidene)hydrazine-1-carboximidamide]
Inhibition of PP1c (dephosphorylation of difluoro-4-methylumbelliferyl phosphate) (PP1c): did not inhibit
Dephosphorylation of eIF2α by R15B-PP1c (R15B-PP1c): inhibited
Adverse effects on weight gain [1]: no obvious adverse effects
Adverse effects on glucose tolerance [2]: no obvious adverse effects
